Data from patent US20080221100A1, “SOLUBLE EPOXIDE HYDROLASE INHIBITORS” (Arete Therapeutics, Inc., priority 2006, published 2008).

Experiments:
[1] = test system: soluble epoxide hydrolase (sEH); assay: Fluorescent assay for mouse and human soluble epoxide hydrolase (CMNPC substrate); format: biochemical, mouse or human, not specified
From the text: Fluorescent Assay for Mouse and Human Soluble Epoxide Hydrolase Recombinant mouse sEH (MsEH) and human sEH (HsEH) were produced in a baculovirus expression system as previously reported. Grant et al., J. Biol. Chem., 268:17628-17633 (1993); Beetham et al., Arch. Biochem. Biophys., 305:197-201 (1993). The expressed proteins were purified from cell lysate by affinity chromatography. Wixtrom et al., Anal. Biochem., 169:71-80 (1988). Protein concentration was quantified using the Pierce BCA assay using bovine serum albumin as the calibrating standard. […] They contained no detectable esterase or glutathione transferase activity which can interfere with the assay. The assay was also evaluated with similar results in crude cell lysates or homogenate of tissues. The IC50s for each inhibitor were determined according to the following procedure: Substrate: [drawing 155] […] Jones P. D. et al.; Analytical Biochemistry 2005; 343: pp. 66-75) Solutions: Bis/Tris HCl 25 mM pH 7.0 containing 0.1 mg/mL of BSA (buffer […] at 0.25 mM in DMSO. Mother solution of enzyme in buffer A (Mouse sEH at 6 μg/mL and Human sEH at 5 μg/mL). Inhibitor dissolved in DMSO at the appropriate concentration. Protocol: In a black 96 well plate, fill all the wells with 150 μL of buffer A. Add 2 μL of DMSO in well A2 and A3, and then add 2 μL of inhibitor solution in A1 and A4 through A12. Add 150 μL of buffer A in row A, then mix several time and transfer 150 μL to row B. Repeat this operation up to row H. The 150 μL removed from row H is discarded. Add 20 μL of buffer A in column 1 and 2, then add 20 μL of enzyme solution to column 3 to 12. Incubate the plate for 5 minutes in the plate reader at 30° C. During incubation prepare the working solution of substrate by mixing 3.68 mL of buffer A (4×0.920 mL) with 266 μL (2×133 μL) of substrate solution). At t=0, add 30 μL of working substrate solution with multi-channel pipette labeled “Briggs 303” and start the reading ([S]final: 5 μM). Read with ex: 330 nm (20 nm) and em: 465 nm (20 nm) every 30 second for 10 minutes. The velocities are used to analyze and calculate the IC50s.

% Inhibition ([1]; Conc 50 nM)	SMILES	further results
80%	O=C(Nc1ccc(C(F)(F)F)cc1)NC1CCN(S(=O)(=O)c2ccc(C(=O)O)cc2)CC1 [Compound 16, 4-{4-[3-(4-Trifluoromethyl-phenyl)-ureido]-piperidine-1-sulfonyl}-benzoic acid]	–
90%	O=C(Nc1ccc(F)cc1)NC1CCN(S(=O)(=O)c2cccc(C(F)(F)F)c2)CC1 [Compound 12, 1-(4-Fluoro-phenyl)-3-[1-(3-trifluoromethyl-benzenesulfonyl)-piperidin-4-yl]-urea]	–
94%	O=C(Nc1ccc(C(F)(F)F)cc1)NC1CCN(C(=O)c2cccnc2)CC1 [Compound 8, 1-[1-(Pyridine-3-carbonyl)-piperidin-4-yl]-3-(4-trifluoromethyl-phenyl)-urea]	–
86%	CS(=O)(=O)N1CCC(NC(=O)Nc2cccc(C(F)(F)F)c2)CC1 [Compound 24, 1-(1-Methanesulfonyl-piperidin-4-yl)-3-(3-trifluoromethyl-phenyl)-urea]	–
97%	CC(C)(C)C(=O)N1CCC(NC(=O)Nc2ccc(C(F)(F)F)cc2)CC1 [Compound 41, 1-(1-Pivaloylpiperidin-4-yl)-3-(4-(trifluoromethyl)phenyl)urea]	melting point: 263 to 265 °C
90%	O=C(Nc1cccc(C(F)(F)F)c1)NC1CCN(S(=O)(=O)c2ccc(Cl)cc2)CC1 [Compound 30, 1-[1-(4-Chloro-benzenesulfonyl)-piperidin-4-yl]-3-(3-trifluoromethyl-phenyl)-urea]	melting point: 116 to 118 °C
80%	CS(=O)(=O)N1CCC(NC(=O)Nc2ccc(F)cc2)CC1 [Compound 27, 1-(4-Fluoro-phenyl)-3-(1-methanesulfonyl-piperidin-4-yl)-urea]	melting point: 186 to 188 °C
–	O=C(Nc1ccc(C(F)(F)F)cc1)NC1CCN(C(=O)N2CCOCC2)CC1 [Compound 55, 1-(1-(morpholine-4-carbonyl)piperidin-4-yl)-3-(4-(trifluoromethyl)phenyl)urea]	melting point: 234 to 236 °C; % Inhibition ([1]; Conc 2000 nM): 43%
–	CC(=O)N1CCC(NC(=O)Nc2ccc(Br)cc2)CC1 [Compound 43, 1-(1-acetylpiperidin-4-yl)-3-(4-bromophenyl)urea]	melting point: 213 to 216 °C
–	CC(=O)N1CCC(NC(=O)Nc2ccccc2)CC1 [ComparativeExample 5, 1-(1-Acetyl-piperidin-4-yl)-3-phenyl-urea, reference compound]	% Inhibition ([1]; Conc 5000 nM): 80%
–	O=C(Nc1ccc(F)c(F)c1)NC1CCN(C(=O)CCCN2CCOCC2)CC1 [Compound 2, 1-(3,4-Difluoro-phenyl)-3-[1-(4-morpholin-4-yl-butyryl)-piperidin-4-yl]-urea]	% Inhibition ([1]; Conc 500 nM): 70%
98%	O=C(Nc1ccc(C(F)(F)F)cc1)NC1CCN(C(=O)c2ccc(N3CCOCC3)cc2)CC1 [Compound 37, 1-(1-(4-Morpholinobenzoyl)piperidin-4-yl)-3-(4-(trifluoromethyl)phenyl)urea]	melting point: 312 to 315 °C
90%	O=C(Nc1ccc(C(F)(F)F)cc1)NC1CCN(S(=O)(=O)c2ccccc2)CC1 [Compound 17, 1-(1-Benzenesulfonyl-piperidin-4-yl)-3-(4-trifluoromethyl-phenyl)-urea]	–
–	CC(C)C(=O)N1CCC(NC(=O)Nc2ccc(C(F)(F)F)cc2)CC1 [Compound 45, 1-(1-isobutyrylpiperidin-4-yl)-3-(4-(trifluoromethyl)phenyl)urea]	% Inhibition ([1]; Conc 200 nM): 97%
–	CC(C)C(=O)N1CCC(NC(=O)Nc2ccc(Br)cc2)CC1 [Compound 46, 1-(4-bromophenyl)-3-(1-isobutyrylpiperidin-4-yl)urea]	melting point: 193 to 204 °C
–	CC(C)(C)CC(=O)N1CCC(NC(=O)Nc2ccc(C(F)(F)F)cc2)CC1 [Compound 48, 1-(1-(3,3-dimethylbutanoyl)piperidin-4-yl)-3-(4-(trifluoromethyl)phenyl)urea]	% Inhibition ([1]; Conc 200 nM): 100%
75%	O=C(Nc1ccc(F)cc1)NC1CCN(C(=O)c2ccc(C(=O)O)cc2)CC1 [Compound 10, 4-{4-[3-(4-Fluoro-phenyl)-ureido]-piperidine-1-carbonyl}-benzoic acid]	–

% Inhibition ([1]; Conc 50 nM)	SMILES	further results
93%	CC(C)S(=O)(=O)N1CCC(NC(=O)Nc2ccc(C(F)(F)F)cc2)CC1 [Compound 42, 1-(1-(Isopropylsulfonyl)piperidin-4-yl)-3-(4-(trifluoromethyl)phenyl)urea]	–
72%	O=C(Nc1ccc(C(F)(F)F)cc1)NC1CCN(C(=O)Cc2c[nH]cn2)CC1 [Compound 33, 1-[1-(2-1H-Imidazol-4-yl-acetyl)-piperidin-4-yl]-3-(4-trifluoromethyl-phenyl)-urea]	–
95%	O=C(Nc1cccc(C(F)(F)F)c1)NC1CCN(S(=O)(=O)c2ccc(C(F)(F)F)cc2)CC1 [Compound 29, 1-[1-(4-Trifluoromethyl-benzenesulfonyl)-piperidin-4-yl]-3-(3-trifluoromethyl-phenyl)-urea]	–
–	O=C(Nc1ccc(F)cc1)NC1CCN(C(=O)c2cccnc2)CC1 [Compound 7, 1-(4-Fluoro-phenyl)-3-[1-(pyridine-3-carbonyl)-piperidin-4-yl]-urea]	% Inhibition ([1]; Conc 500 nM): 89%
68%	CC(=O)N1CCC(NC(=O)Nc2cccc(C(F)(F)F)c2)CC1 [Compound 25, 1-(1-Acetyl-piperidin-4-yl)-3-(3-trifluoromethyl-phenyl)-urea]	–
94%	O=C(Nc1ccc(C(F)(F)F)cc1)NC1CCN(C(=O)c2ccccn2)CC1 [Compound 9, 1-[1-(Pyridine-2-carbonyl)-piperidin-4-yl]-3-(4-trifluoromethyl-phenyl)-urea]	–
79%	O=C(Nc1ccc(F)cc1)NC1CCN(S(=O)(=O)c2ccccc2)CC1 [Compound 13, 1-(1-Benzenesulfonyl-piperidin-4-yl)-3-(4-fluoro-phenyl)-urea]	–
89%	O=C(Nc1ccc(F)cc1)NC1CCN(S(=O)(=O)c2ccc(C(F)(F)F)cc2)CC1 [Compound 14, 1-(4-Fluoro-phenyl)-3-[1-(4-trifluoromethyl-benzenesulfonyl)-piperidin-4-yl]-urea]	–
89%	Cn1cnc(C(=O)N2CCC(NC(=O)Nc3ccc(C(F)(F)F)cc3)CC2)c1 [Compound 35, 1-[1-(1-Methyl-1H-imidazole-4-carbonyl)-piperidin-4-yl]-3-(4-trifluoromethyl-phenyl)-urea]	–
–	CC(C)S(=O)(=O)N1CCC(NC(=O)Nc2ccc(Br)cc2)CC1 [Compound 44, 1-(4-bromophenyl)-3-(1-(isopropylsulfonyl)piperidin-4-yl)urea]	melting point: 240 to 242 °C
–	O=C(Nc1ccc(Cl)cc1)NC1CCN(C(=O)Cc2c[nH]cn2)CC1 [Compound 34, 1-(4-Chloro-phenyl)-3-[1-(2-1H-imidazol-4-yl-acetyl)-piperidin-4-yl]-urea]	% Inhibition ([1]; Conc 500 nM): 80%
94%	CC(C)CC(=O)N1CCC(NC(=O)Nc2ccc(C(F)(F)F)cc2)CC1 [Compound 6, 1-[1-(3-Methyl-butyryl)-piperidin-4-yl]-3-(4-trifluoromethyl-phenyl)-urea]	–
75%	O=C(Nc1ccc(Cl)cc1)NC1CCN(S(=O)(=O)c2ccc(C(=O)O)cc2)CC1 [Compound 15, 4-{4-[3-(4-Chloro-phenyl)-ureido]-piperidine-1-sulfonyl}-benzoic acid]	–
–	O=C(Nc1ccccc1)NC1CCN(C(=O)CCCN2CCOCC2)CC1 [ComparativeExample 1, 1-[1-(4-Morpholin-4-yl-butyryl)-piperidin-4-yl]-3-phenyl-urea, reference compound]	% Inhibition ([1]; Conc 5000 nM): 96%
96%	O=C(Nc1ccc(C(F)(F)F)cc1)NC1CCN(S(=O)(=O)c2cccc(C(F)(F)F)c2)CC1 [Compound 20, 1-[1-(3-Trifluoromethyl-benzenesulfonyl)-piperidin-4-yl]-3-(4-trifluoromethyl-phenyl)-urea]	–
98%	O=C(Nc1ccc(C(F)(F)F)cc1)NC1CCN(C(=O)c2ccc(C(=O)O)cc2)CC1 [Compound 11, 4-{4-[3-(4-Trifluoromethyl-phenyl)-ureido]-piperidine-1-carbonyl}-benzoic acid]	–
90%	O=C(Nc1ccc(C(F)(F)F)cc1)NC1CCN(S(=O)(=O)c2ccc(Cl)cc2)CC1 [Compound 18, 1-[1-(4-Chloro-benzenesulfonyl)-piperidin-4-yl]-3-(4-trifluoromethyl-phenyl)-urea]	–

SMILES	% Inhibition ([1]; Conc 50 nM)	further results
O=C(Nc1cccc(C(F)(F)F)c1)NC1CCN(S(=O)(=O)c2ccccc2)CC1 [Compound 26, 1-(1-Benzenesulfonyl-piperidin-4-yl)-3-(3-trifluoromethyl-phenyl)-urea]	90%	–
